Two compounds from patent publication EP3046573B1, “AMYLIN ANALOGUES” (Zealand Pharma A/S, priority 2013, dated 2015) can be followed below.

What is called EC50 is the concentration needed to bring the measured effect to its halfway point.

Numbered stars: 1 amine (or outer) side, 2 acyl side, 3 side chain; on linkers, the order of the positions; unused ones are H or OH. Bridge positions count the residues as written; N and C are the ends. Square brackets hold non-standard residues; d marks the D form. Peptide text beside a SMILES is read from it. * marks the point of attachment. C20 diacid = O=C(O)CCCCCCCCCCCCCCCCCCC(=O)*; γGlu = O=C(O)[C@H](CCC(=O)[*:2])N[*:1]; NMeI = CC[C@H](C)[C@H](NC)C(=O)O; Sar = CNCC(=O)O

Data set [1] concerns the target T1, human calcitonin receptor (hCTR2) (Homo sapiens, UniProt P30988).
T1 construct: expressed in transfected cells
T1 sequence (P30988 25-474): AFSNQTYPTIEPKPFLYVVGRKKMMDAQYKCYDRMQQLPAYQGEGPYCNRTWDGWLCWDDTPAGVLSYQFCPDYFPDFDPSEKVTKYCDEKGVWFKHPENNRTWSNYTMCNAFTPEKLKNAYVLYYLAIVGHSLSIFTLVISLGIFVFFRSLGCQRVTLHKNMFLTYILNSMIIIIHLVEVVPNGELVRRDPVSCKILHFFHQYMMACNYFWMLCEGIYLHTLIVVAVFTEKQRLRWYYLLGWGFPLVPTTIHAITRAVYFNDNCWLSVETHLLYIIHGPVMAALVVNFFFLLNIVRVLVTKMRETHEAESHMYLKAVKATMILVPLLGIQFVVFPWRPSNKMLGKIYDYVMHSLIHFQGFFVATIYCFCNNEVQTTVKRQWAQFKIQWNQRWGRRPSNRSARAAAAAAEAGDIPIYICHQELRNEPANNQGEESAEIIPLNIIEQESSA
Briefly: hCTR2 assay: induction of cAMP (AlphaScreen cAMP Assay kit) in COS7 cells expressing hCTR2. The format is cell-based. The note with it: cAMP induction in COS7 cells expressing hCTR2; average of a minimum of 3 determinations; read-out: hCTR2 EC50. In short, it runs like this: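 Functional agonism is measured as cAMP accumulation in a COS7 line stably transfected with hCTR2, lacking endogenous RAMPs. Peptides act for 15 min at 37° C with IBMX present, and curves are fitted with a 4-parameter logistic model.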

Data set [2] deals with T2, human amylin receptor 3 (hAMYR3) consisting of hCTR2 co-expressed with human Receptor Activity Modifying Protein 3 (hRAMP3) (Homo sapiens, UniProt O60896+P30988).
T2 construct: expressed in transfected cells
T2 sequence (P30988 25-474): T1 sequence (P30988 25-474)
T2 sequence (O60896 24-148 partner): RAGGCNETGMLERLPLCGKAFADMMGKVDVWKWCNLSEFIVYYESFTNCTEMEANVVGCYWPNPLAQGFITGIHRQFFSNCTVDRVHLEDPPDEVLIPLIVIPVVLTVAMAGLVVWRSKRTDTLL
Briefly: hAMYR3 assay: induction of cAMP (AlphaScreen cAMP Assay kit) in COS7 cells expressing hAMYR3. It is filed as cell-based. Particulars: cAMP induction in COS7 cells expressing hAMYR3; average of a minimum of 3 determinations; read-out: hAMY R3 EC50. The gist of the method: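 Stable COS7 clone co-expressing hCTR2 and hRAMP3, stimulated 15 min at 37° C with increasing peptide in Tyrode buffer pH 7.4 with 100 µM IBMX and 0.1% casein. cAMP measured by AlphaScreen after lysis; EC50 and % efficacy versus pramlintide from 4PL fit.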

A short description of data set [3]: Solubility assessment (turbidity absorbance at 325 nm). It is filed as physicochemical. The note with it: stock 2 mg/ml diluted 1:1, ambient temperature (typically 25°C), n=1; for Solubility, Acetate buffer pH 4: 100 mM acetate buffer pH 4.0; for Solubility, Acetate buffer pH 5: 100 mM acetate buffer pH 5.0; for Solubility, Histidine buffer pH 6: 100 mM histidine buffer pH 6.0; for Solubility, Histidine buffer pH 7: 100 mM histidine buffer pH 7.0; for Solubility, Phosphate buffer pH 6: 100 mM phosphate buffer pH 6.0; for Solubility, Phosphate buffer pH 7: 100 mM phosphate buffer pH 7.0; for Solubility, Phosphate buffer pH 7.5: 100 mM phosphate buffer pH7.5. In short, it runs like this:
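Peptide stock (2 mg/ml) in water acidified to pH 2.5 with HCl was diluted 1:1 into 100 mM acetate (pH 4.0, 5.0), histidine (pH 6.0, 7.0) or phosphate (pH 6.0, 7.0, 7.5) buffer. A280 and A325 were read at about 25°C, n=1. A325 ≤ 0.02 meant solubility ≥ 1 mg/ml.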

For `CC[C@H](C)[C@@H](C(=O)N[C@@H](CC(C)C)C(=O)N[C@@H](CO)C(=O)N[C@@H](CO)C(=O)N[C@H](C(=O)N[C@@H](CCC(=O)O)C(=O)N[C@H](C(=O)NCC(=O)N[C@@H](CO)C(=O)N[C@@H](CCC(=O)O)C(=O)N[C@H](C(=O)N1CCC[C@H]1C(N)=O)[C@@H](C)O)C(C)C)[C@@H](C)O)N(C)C(=O)[C@H](C)NC(=O)CN(C)C(=O)[C@H](Cc1ccccc1)NC(=O)[C@H](CO)NC(=O)[C@H](CO)NC(=O)[C@H](CO)NC(=O)[C@H](CO)NC(=O)[C@H](CCCNC(=N)N)NC(=O)[C@H](Cc1c[nH]cn1)NC(=O)[C@H](CC(C)C)NC(=O)[C@H](Cc1ccccc1)NC(=O)[C@H](CCC(=O)O)NC(=O)[C@H](C)NC(=O)[C@H](CC(C)C)NC(=O)[C@H](CCCNC(=N)N)NC(=O)[C@H](CCC(=O)O)NC(=O)[C@@H](NC(=O)[C@H](C)NC(=O)[C@@H]1CSSC[C@H](NC(=O)[C@H](CCCNC(=N)N)NC(=O)CC[C@H](NC(=O)CCCCCCCCCCCCCCCCCCC(=O)O)C(=O)O)C(=O)N[C@@H](CC(N)=O)C(=O)N[C@@H]([C@@H](C)O)C(=O)N[C@@H](C)C(=O)N[C@@H]([C@@H](C)O)C(=O)N1)[C@@H](C)O` [Compound 119, [19CD]-isoGlu-RC()NTATC()ATERLAEFLHRSSSSF-Gly(Me)-A-Ile(Me)-LSSTEVGSETP-NH2] ({C20 diacid-γGlu}-RCNTATCATERLAEFLHRSSSSF[Sar]A[NMeI]LSSTEVGSETP-NH2; disulfide 2-7), in data set [1], the EC50 was 0.17 nM. The EC50 in data set [2] is 0.3 nM. Besides, in data set [3], the “Solubility, Acetate buffer pH 4” value was “SS (SS indicates solubility ≥ 1mg/ml)”; the “Solubility, Acetate buffer pH 5” value is “SS (SS indicates solubility ≥ 1mg/ml)”; the “Solubility, Histidine buffer pH 6” value is listed as “SS (SS indicates solubility ≥ 1mg/ml)”; the “Solubility, Histidine buffer pH 7” value is given as “SS (SS indicates solubility ≥ 1mg/ml)”. Also, in data set [3], the “Solubility, Phosphate buffer pH 6” value was “SS (SS indicates solubility ≥ 1mg/ml)”; the “Solubility, Phosphate buffer pH 7” value is listed as “SS (SS indicates solubility ≥ 1mg/ml)”; the “Solubility, Phosphate buffer pH 7.5” value is “SS (SS indicates solubility ≥ 1mg/ml)”.

In the case of `CC[C@H](C)[C@@H](C(=O)N[C@@H](CC(C)C)C(=O)N[C@@H](CO)C(=O)N[C@@H](CO)C(=O)N[C@H](C(=O)N[C@@H](CCC(=O)O)C(=O)N[C@H](C(=O)NCC(=O)N[C@@H](CO)C(=O)N[C@@H](CCC(=O)O)C(=O)N[C@H](C(=O)N1CCC[C@H]1C(N)=O)[C@@H](C)O)C(C)C)[C@@H](C)O)N(C)C(=O)[C@H](C)NC(=O)CN(C)C(=O)[C@H](Cc1ccccc1)NC(=O)[C@H](CO)NC(=O)[C@H](CO)NC(=O)[C@H](CO)NC(=O)[C@H](CO)NC(=O)[C@H](CCCNC(=N)N)NC(=O)[C@H](Cc1c[nH]cn1)NC(=O)[C@H](CC(C)C)NC(=O)[C@H](Cc1ccccc1)NC(=O)[C@H](CCC(=O)O)NC(=O)[C@H](C)NC(=O)[C@H](CC(C)C)NC(=O)[C@H](CCCNC(=N)N)NC(=O)[C@H](CC(C)C)NC(=O)[C@@H](NC(=O)[C@H](C)NC(=O)[C@@H]1CSSC[C@H](NC(=O)[C@H](CCCNC(=N)N)NC(=O)CC[C@H](NC(=O)CCCCCCCCCCCCCCCCCCC(=O)O)C(=O)O)C(=O)N[C@@H](CC(N)=O)C(=O)N[C@@H]([C@@H](C)O)C(=O)N[C@@H](C)C(=O)N[C@@H]([C@@H](C)O)C(=O)N1)[C@@H](C)O` [Compound 121, [19CD]-isoGlu-RC()NTATC()ATLRLAEFLHRSSSSF-Gly(Me)-A-Ile(Me)-LSSTEVGSETP-NH2] ({C20 diacid-γGlu}-RCNTATCATLRLAEFLHRSSSSF[Sar]A[NMeI]LSSTEVGSETP-NH2; disulfide 2-7), the EC50 in data set [1] is 0.15 nM. Further, the EC50 in data set [2] came to 0.3 nM. Moreover, in data set [3], the “Solubility, Acetate buffer pH 4” value is “SS (SS indicates solubility ≥ 1mg/ml)”; the “Solubility, Acetate buffer pH 5” value is “SS (SS indicates solubility ≥ 1mg/ml)”; the “Solubility, Histidine buffer pH 6” value is “II (II indicates solubility ≤ 1 mg/ml)”; the “Solubility, Histidine buffer pH 7” value was “SS (SS indicates solubility ≥ 1mg/ml)”. Besides, in data set [3], the “Solubility, Phosphate buffer pH 6” value was “SS (SS indicates solubility ≥ 1mg/ml)”; the “Solubility, Phosphate buffer pH 7” value was “II (II indicates solubility ≤ 1 mg/ml)”; the “Solubility, Phosphate buffer pH 7.5” value is reported as “SS (SS indicates solubility ≥ 1mg/ml)”.
